These results are taken from patent US7332476B2, “Pyridyl substituted ketolide antibiotics” (Novartis AG, priority 2003, dated 2008).

Test in all cases: MIC, broth microdilution (NCCLS)
For orientation: Dilution methods test growth across graded concentrations, often in twofold steps.

Test [1] deals with Streptococcus pneumoniae Stpn_297-749. Type of test: cell-based. The arrangement: MIC, strain ID N: unit not given here. Conditions: for MIC: Table 10, Strain ID N (Table 8): Streptococcus pneumoniae Stpn_297-749. In outline: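 NCCLS broth microdilution with 2-fold serial drug dilutions (methanol stocks diluted in water); inoculum 3×10^5–7×10^5 CFU/ml in CAMHB, with 2-5% lysed horse blood for S. pneumoniae. Incubation 18-24 h at 35° C., ambient air, except S. pneumoniae (5-10% CO2). MIC is lowest concentration preventing visible growth.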

Test [2] concerns Enterococcus faecalis Enfa_bc 11148-2. Type of test: cell-based. The note with it: in µg/mL (unit assumed); for MIC: Table 10, Strain ID F (Table 8): Enterococcus faecalis Enfa_bc 11148-2. In outline: (§1)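 MIC read visually as lowest drug concentration with no growth after 18-24 h at 35° C; ambient air for staphylococci and enterococci, 5-10% CO2 for H. influenzae. Inoculum 3×10^5–7×10^5 CFU/ml; CAMHB or Haemophilus Test Medium.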

Test [3] has as its system Haemophilus influenzae Hain_960730503-3. It counts as cell-based. Conditions: in µg/mL (unit assumed); for MIC: Table 10, Strain ID I (Table 8): Haemophilus influenzae Hain_960730503-3. In outline: as §1
Test [4] concerns Haemophilus influenzae Hain_960820544-3. It counts as cell-based. The note with it: in µg/mL (unit assumed); for MIC: Table 10, Strain ID J (Table 8): Haemophilus influenzae Hain_960820544-3. The gist of the method:
as §1

The subject of test [5] is Haemophilus influenzae Hain_953460299-3. Type of test: cell-based. The note with it: in µg/mL (unit assumed); for MIC: Table 10, Strain ID K (Table 8): Haemophilus influenzae Hain_953460299-3. The gist of the method: as §1
Test [6] relates to Staphylococcus aureus Stau_33591. Type of test: cell-based. The note with it: unit assumed; for MIC: Table 10, Strain ID B (Table 8): Staphylococcus aureus Stau_33591. In outline:
as §1

For test [7], the system named is Haemophilus influenzae Hain_2762. It counts as cell-based. The note with it: in µg/mL (unit assumed); for MIC: Table 10, Strain ID L (Table 8): Haemophilus influenzae Hain_2762. In outline:
as §1

The test system of test [8] is S. pneumoniae Stpn_Erm 6849. Type of test: cell-based, Streptococcus pneumoniae. The note with it: strain ID P; broth microdilution; in µg/mL (unit assumed). The gist of the method:
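S. pneumoniae MIC by NCCLS broth microdilution in cation-adjusted Mueller-Hinton broth with 2-5% lysed horse blood, inoculum 3×10^5–7×10^5 CFU/ml, 2-fold drug dilutions. Incubated 18-24 hours at 35° C. in 5-10% CO2; MIC is lowest concentration preventing visible growth.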

Each structure is given as a SMILES string.

For the compound `CC[C@H]1OC(=O)[C@@](C)(F)C(=O)[C@H](C)[C@@H](OC2O[C@H](C)C[C@H](N(C)C)[C@H]2O)[C@@](C)(OC)C[C@@H](C)C(=O)[C@H](C)[C@H]2N(CCCCn3cnc(-c4ccc(C)nc4)c3)C(=O)O[C@]12CC` (stereo partly drawn) [XIV], the MIC result in test [1] was “=0.05”; in test [2] it was 1.56; in test [3] it was 6.25; in test [4], 6.25; in test [5], 6.25; in test [6] it was > 50 µg/mL. The MIC in test [7] stood at 1.56.

Take `C=C[C@]12OC(=O)N(CCCCn3cnc(-c4ccc(C)nc4)c3)[C@@H]1[C@@H](C)C(=O)[C@H](C)C[C@](C)(OC)[C@H](OC1O[C@H](C)C[C@H](N(C)C)[C@H]1O)[C@@H](C)C(=O)[C@@H](C)C(=O)O[C@@H]2CC` (stereo partly drawn) [XVI]: the MIC entry in test [1] was “=0.05”; in test [2], 0.78; in test [3], 6.25; in test [4] it was 6.25; in test [5], 6.25; in test [6], > 50 µg/mL. In test [7], this compound displayed an MIC of 1.56.

`C=C[C@]12OC(=O)N(CCCCn3cnc(-c4ccc(OC)nc4)c3)[C@@H]1[C@@H](C)C(=O)[C@H](C)C[C@](C)(OC)[C@H](OC1O[C@H](C)C[C@H](N(C)C)[C@H]1O)[C@@H](C)C(=O)[C@@H](C)C(=O)O[C@@H]2CC` (stereo partly drawn) [XVIII]: the MIC result in test [1] is “=0.05”; in test [2] it was 0.78; in test [3], 6.25; in test [4], 6.25; in test [5], 6.25; in test [6] it was > 50 µg/mL. Further, the MIC in test [7] was found to be 1.56.

Consider `CC[C@H]1OC(=O)[C@H](C)C(=O)[C@H](C)[C@@H](O[C@@H]2O[C@H](C)C[C@H](N(C)C)[C@H]2O)[C@](C)(OC)C[C@@H](C)C(=O)[C@H](C)[C@H]2N(CCCCn3cnc(-c4cccnc4)c3)C(=O)O[C@]12C` [Telithromycin, telithromycin, reference compound], for which the MIC entry in test [1] is “=0.05”; in test [2], 0.4-0.78; in test [3], 3.13-6.25; in test [4], 3.13-6.25; in test [5], 3.13-6.25; in test [6], > 50 µg/mL. Further, the MIC in test [7] is on record as 0.78-1.56. The “MIC, strain ID N” value in test [1] (strain ID N, broth microdilution) is “=0.05”. Further, the “MIC, strain ID F” value in test [2] (strain ID F, broth microdilution) is given as 0.4-0.78. In addition, the “MIC, strain ID I” value in test [3] (strain ID I, broth microdilution) is listed as 3.13-6.25. Further, in test [4] (strain ID J, broth microdilution), the “MIC, strain ID J” value was 3.13-6.25. Besides, the “MIC, strain ID K” value in test [5] (strain ID K, broth microdilution) is 3.13-6.25. Besides, the MIC, strain ID B in test [6] (strain ID B, broth microdilution) was > 50 µg/mL. Also, the “MIC, strain ID L” value in test [7] (strain ID L, broth microdilution) is 0.78-1.56. Also, the “MIC, strain ID P” value in test [8] is reported as 0.2-0.78.
